Assay results as given in patent US4629738A, “Non-classical topical treatment for glaucoma” (University of Iowa Research Foundation, priority 1984, dated 1986).
“And” between values parts separate entries of the source, which are not always exact repeats. Equal entries are not always repeated. “Also recorded” adds a separate entry of the source.

What was measured:
[1] = test system: intraocular pressure (IOP) of adult white rabbits; assay: Salted Rabbit Test: IOP after topical 1% w/v suspension; assay type: in vivo; details: for IOP change, individual rabbit (Rabbit No. 1-6): 1% w/v suspension, 3 drops
Experimental: In particular, an initial drop from the test formulation followed by two drops at one minute intervals are applied to one eye of each of six adult white rabbits that had been maintained ona diet containing 0.5% sodium. The treated eye was selected randomly, whereas, the fellow eye received placebo; the observer was masked. Results identified a small but significant reduction of intraocular pressure in the treated eye at 30, 60 and 120 minutes.
One drop, followed by two drops each at one minute intervals, was applied to one eye of normal adult white rabbits. Six rabbits were used in the experiment. The treated eye was selected randomly, whereas, the fellow eye received placebo. The observer was masked. The intraocular pressure (IOP) was measured with a Digilab Pneumotonometer, initially and every ten minutes for 120 minutes following instillation of the anti-glaucoma agent. A drop of local anesthetic was applied just prior to making the measurement.

carbonic anhydrase = assay: in vitro carbonic anhydrase activity, simplified method of Maren; assay type: biochemical; set-up: averaged I50 (concentration of drug causing 50% inhibition of enzyme): unit not given here
Experimental: Water was added to the reaction vessel which was kept in a water bath at 0±0.25° C. The reaction cell was constantly purged with CO2 at a rate of 200 to 250 ml/min. Each reagent was added at a specified time and in a specified order. […] The time required for the reaction begins with the addition of carbonate buffer and was completed with the indicator changed from red to yellow. […] Reaction time was the time for the uncatalyzed reaction time. […] By varying the time before adding the carbonate buffer and then determining the reaction time, the equilibration time can be accurately determined. The reaction time was averaged over three determinations. […] (If two enzyme units are added, then the concentration of drug yielding a reaction time corresponding to the activity of one unit is taken as the I50). An enzyme unit (e.u.) was calculated from: [formula]

With `CNS(=O)(=O)c1nnc(NC(C)=O)s1` [methyl acetazolamide, N-methyl-2-acetylamino-1,3,4-thiadiazole-5-sulfonamide] the “IOP change, individual rabbit (Rabbit No. 1-6)” value (shortened to “IOP change … (Rabbit No. 1-6)”) ([1]; 10 min) was -4 mm Hg and -2 mm Hg and 0 mm Hg, the “IOP change … (Rabbit No. 1-6)” value ([1]; 20 min) was -2 mm Hg and 0 mm Hg and -4 mm Hg and -3 mm Hg and 1 mm Hg and the “IOP change … (Rabbit No. 1-6)” value ([1]; 30 min) was -3 mm Hg and -2 mm Hg and -1 mm Hg. For the same compound, the “IOP change … (Rabbit No. 1-6)” value ([1]; 40 min) was 0 mm Hg and -1 mm Hg, the “IOP change … (Rabbit No. 1-6)” value ([1]; 50 min) was -5 mm Hg and -2 mm Hg and -1 mm Hg and 0 mm Hg and the “IOP change … (Rabbit No. 1-6)” value ([1]; 60 min) was -3 mm Hg and 1 mm Hg and -2 mm Hg and -1 mm Hg. The “IOP change … (Rabbit No. 1-6)” value ([1]; 70 min) was -4 mm Hg and -2 mm Hg and 0 mm Hg and 2 mm Hg, the “IOP change … (Rabbit No. 1-6)” value ([1]; 80 min) was -3 mm Hg and -4 mm Hg and 1 mm Hg and 0 mm Hg and the “IOP change … (Rabbit No. 1-6)” value ([1]; 90 min) was -2 mm Hg and 1 mm Hg and -1 mm Hg and -4 mm Hg and 0 mm Hg and 3 mm Hg. For the same compound, the “IOP change … (Rabbit No. 1-6)” value ([1]; 100 min) was -4 mm Hg and 0 mm Hg and -3 mm Hg and -2 mm Hg, the “IOP change … (Rabbit No. 1-6)” value ([1]; 110 min) was -2 mm Hg and 0 mm Hg and 1 mm Hg and the “IOP change … (Rabbit No. 1-6)” value ([1]; 120 min) was -3 mm Hg and 0 mm Hg and -1 mm Hg. For the same compound, the “reduction of intraocular pressure after topical administration, in words” value ([1]; rabbit, eye drops) was “lowering of IOP was statistically significant at all time intervals; also recorded: able to reduce intraocular pressure”, the “in vitro carbonic anhydrase inhibition, in words” value (carbonic anhydrase) was “inactive in vitro” and the “activity relative to acetazolamide (ratio of I50)” value (carbonic anhydrase; 0.52/0.00914) was 1/60. The “averaged I50 (concentration of drug causing 50% inhibition of enzyme)” value (carbonic anhydrase; heparinized blood, 2 enzyme units, 0 C) was 0.520.
